This is an account of results in ChEMBL document CHEMBL4340537, “A cross-linking approach to map small molecule-RNA binding sites in cells” (Bioorg Med Chem Lett, 2019).

For data set [1], the system named is MCF-10A. The data set is described as follows: Induction of apoptosis in human MCF10A cells assessed as increase in caspase 3/7 activity up to 500 nM incubated for 48 hrs by caspase glo 3/7 assay. It counts as cell-based.
Data set [2] has as its system MDA-MB-231. The data set is described as follows: Binding affinity to pri-miR-96 RNA in human MDA-MB-231 cells assessed as reduction in matured miR-96 levels at 50 nM for 24 hrs by RT-qPCR method. It is filed as cell-based. For orientation: Quantitative PCR measures a nucleic acid by following its amplification.
The test system of data set [3] is MDA-MB-231. Nature of the data set: Binding affinity to pri-miR-96 RNA in human MDA-MB-231 cells assessed as increase in FOXO1 protein expression at 50 nM for 24 hrs by RT-qPCR method. It counts as cell-based.
For data set [4], the system named is MDA-MB-231. The data set is described as follows: Induction of apoptosis in human MDA-MB-231 cells assessed as increase in caspase 3/7 activity up to 500 nM incubated for 48 hrs by caspase glo 3/7 assay. It is filed as functional, cell-based.
A short description of data set [5]: Binding affinity to 32P-labeled pri-miR-96 RNA (unknown origin) incubated for 4 hrs by streptavidin based liquid scintillation counting dependent pull down assay.
For data set [6], the system named is microRNA 96. Nature of the data set: Inhibition of miR-96 RNA in human MDA-MB-231 cells by TargetScan assay. It counts as cell-based.
Data set [7] deals with MDA-MB-231. The data set is described as follows: Binding affinity to pri-miR-96 RNA in human MDA-MB-231 cells assessed as increase in RNA abundance at 50 nM for 24 hrs by RT-qPCR relative to control. It counts as cell-based.
The nature of data set [8]: Binding affinity to pri-miR-96 RNA (unknown origin) at 1000 nM in presence of Targaprimir-96 by in vitro competitive (C-)Chem CLIP assay.
For data set [9], the system named is microRNA 96. The data set is described as follows: Inhibition of miR-96 RNA in human MDA-MB-231 cells by volcano plot analysis. It counts as cell-based.

Activity calls are given as the source filed them. The rule behind the calls is not given here. Numbered stars: 1 amine (or outer) side, 2 acyl side, 3 side chain; on linkers, the order of the positions; unused ones are H or OH. Square brackets hold non-standard residues; d marks the D form. Peptide text beside a SMILES is read from it. * marks the point of attachment. Biotinyl(3aR,4R,6aS) = O=C1N[C@@H]2[C@@H](CS[C@@H]2CCCCC(=O)*)N1; N(2-Aminoethyl)Gly = O=C(CN(CCN[*:3])[*:1])[*:2]; Chlorambucil = O=C(CCCc1ccc(N(CCCl)CCCl)cc1)*; Gly(N-propargyl) = C#CCNCC(=O)O; NPrGly = CCCNCC(=O)O

Consider `CCCN(CC(=O)N(CC(=O)N(CCNC(=O)CCCC[C@H]1SC[C@H]2NC(=O)N[C@H]21)CC(N)=O)Cc1cn(CCCNC(=O)CCCOc2c(C(C)(C)C)cc(-c3nc4cc(N5CCN(C)CC5)ccc4[nH]3)cc2C(C)(C)C)nn1)C(=O)CN(CCNC(=O)CCCc1ccc(N(CCCl)CCCl)cc1)C(=O)CCCOc1cccc(-c2nc3ccc(-c4nc5cc(N6CCN(C)CC6)ccc5[nH]4)cc3[nH]2)c1`, for which the Activity result in [1] was “Non-Toxic”.
Consider `C#CCN(CC(=O)N(CCNC(=O)CCCC[C@H]1SC[C@H]2NC(=O)N[C@H]21)CC(N)=O)C(=O)CN(CCC)C(=O)CN(CCNC(=O)CCCc1ccc(N(CCCl)CCCl)cc1)C(C)=O` (Ac-[N(2-Aminoethyl)Gly](Chlorambucil)[NPrGly][Gly(N-propargyl)][N(2-Aminoethyl)Gly](Biotinyl(3aR,4R,6aS))-NH2), for which the result in data set [2], in data set [3], in data set [4] and in [5] was inactive.
`CCCN(CC(=O)N(CC(=O)N(CCNC(=O)CCCC[C@H]1SC[C@H]2NC(=O)N[C@H]21)CC(N)=O)Cc1cn(CCCNC(=O)CCCOc2c(C(C)(C)C)cc(-c3nc4cc(N5CCN(C)CC5)ccc4[nH]3)cc2C(C)(C)C)nn1)C(=O)CN(CCNC(=O)CCCc1ccc(N(CCCl)CCCl)cc1)C(=O)CCCOc1cccc(-c2nc3ccc(-c4nc5ccc(N6CCN(C)CC6)cc5[nH]4)cc3[nH]2)c1`: the inhibition result in data set [6] and in data set [9] was “Active” each time. In addition, the result in data set [2], in data set [3], in data set [4] and in data set [5] was Active. In addition, the fold change (FC) in [7] was determined as 1.5. Also, the result in [8] was inactive.
As to `CCCN(CC(=O)N(CCC)CC(=O)N(CC(N)=O)Cc1cn(CCCNC(=O)CCCOc2c(C(C)(C)C)cc(-c3nc4cc(N5CCN(C)CC5)ccc4[nH]3)cc2C(C)(C)C)nn1)C(=O)CCCOc1cccc(-c2nc3ccc(-c4nc5ccc(N6CCN(C)CC6)cc5[nH]4)cc3[nH]2)c1`, the outcome in [2], in data set [3] and in [4] was Active. The fold change (FC) in data set [7] turned out to be 1.5. Moreover, the Activity result in [1] was “Non-Toxic”.
